# Measurements reported in PMC10166914, “GTN057, a komaroviquinone derivative, induced myeloma cells' death in vivo and inhibited c‐MET tyrosine kinase” (Cancer Medicine, 2023).
# Legend:
# MUM24 cells = experiment: Combination treatment with bortezomib or lenalidomide, MTT assay; type: cell-based, human; settings: GTN057 with bortezomib or lenalidomide
# Description: FIGURE 1 GTN057 induced the cell death of MM cells in vitro. (A) The chemical structure of GTN057 and the putative degradation product, GTN054. (B) GTN057 induced the cell death of the MM cell lines. The cells were incubated with GTN057 for 48 h, and the number of viable cells was counted by trypan blue exclusion test. Bars: mean ± SD (n = 3). *p < 0.05 versus control. (C) Growth‐inhibitory effects of GTN057 on CD138‐positive cells obtained from MM patients' bone marrow. Cells were treated with GTN057. The viability was evaluated by an MTT assay. Bars: mean ± SD (n = 3). *p < 0.05 versus control. (D) Combination treatment of GTN057 with bortezomib (Btz) or lenalidomide (Len), two major standard myeloma drugs, in MUM24 cells. The viability was evaluated by an MTT assay. Bars: mean ± SD (n = 3). *p < 0.05 versus GTN057 alone. […]
# For the 3‐[…] (MTT) assay (Roche Diagnostics), 6 × 10^4 cells/mL of CD138‐positive bone marrow cells were cultured in 96‐well plates in triplicate with various concentrations of GTN057 for 48 h. The cell viability was examined by MTT dye absorbance in accord with the manufacturer's manual. […]
# KMS11 xenografted tumor = experiment: Histopathologic and immunohistochemical examination of xenografts; type: in vivo, ICR/SCID mice; settings: GTN057-treated KMS11 xenografts, immunohistochemistry
# Text: Xenografts were excised and fixed with 10% formalin and embedded in paraffin. Five‐μm sliced sections were used for hematoxylin and eosin (H&E) staining. For the immunohistochemical evaluation, we used anti‐human cleaved poly(ADP‐ribose), polymerase (PARP), polyclonal antibody (pAb) (Cell Signaling Technology Japan, Tokyo), anti‐human Ki‐67 monoclonal antibody (mAb) (clone MIB‐1) (Dako Japan, Tokyo), anti‐human cleaved caspase‐3 (Asp175), pAb (Cell Signaling Technology Japan), and anti‐human Factor VIII mAb (Atlas Antibodies).
# [1] = Toxicity assessment in ICR mice; type: in vivo
# Text: For the toxicity assessment of GTN057 in vivo, we intraperitoneally (i.p.)‐injected male 5‐week‐old ICR mice (CLEA, […]) dissolved in 1% Tween® 80 + 10% DMSO in saline on 2 consecutive days of every 3‐day period for 2 weeks. The mice were weighed every week. Peripheral blood was collected with a heparinized hematocrit tube (Terumo, Tokyo) from the tail vein of each mouse every week and was stained with Türk's solution (Merck). The numbers of leukocytes and neutrophils were counted using light microscopy.
# [2] = tested on: FGF-2 stimulated ERK1/2, STAT3, AKT1 phosphorylation; experiment: Western blot, FGF-2-stimulated signaling in KMS11 cells; type: cell-based, human; settings: KMS11 cells stimulated by FGF-2
# Description: (§1) MM cells (4 × 10^5 cells/mL) were incubated with 0–20 μM GTN057 for 12 h. The cells were then co‐cultured with 0–50 ng/mL of hepatocyte growth factor (HGF) (PeproTech, London) or 0–20 ng/mL of fibroblast growth factor (FGF)‐2 (PeproTech) with 1 unit/mL of heparin in RPMI containing 4% dialyzed FCS (Gibco) for the KMS11 and KMS34 cells and 10% dialyzed FCS for the KMS21 cells for 15 min at RT (room temperature). A549 cells were co‐cultured with 0–50 ng/mL of epidermal growth factor (EGF) (PeproTech) in Eagle's MEM containing 4% dialyzed FCS for 15 min at RT. […]
# (§2) The protein concentrations were measured using a BCA Protein Assay Kit (Thermo Fisher Scientific). […]
# (§3) Antibodies against phospho‐STAT3 (Tyr705), phospho‐Akt (Ser473), p44/42 MAPK (Erk 1/2), phosphor‐p44/42 MAPK (Thr202/Tyr 204), and phospho‐c‐Met (Tyr1234/1235) (all from Cell Signaling Technology, Danvers, MA) or STAT3, Akt, c‐Met, and β‐actin (all from Santa Cruz Biotechnology, Santa Cruz, CA) or phospho‐c‐Met (Tyr1230/1234/1235) (Biosource, Camarillo, CA for KMS34 cells in Figure 3A) were each used at 1:1000 dilution. […] The Western blotting signals were detected by enhanced ECL chemiluminescence (Amersham). The signal intensity of each band was quantified densitometrically with ImageJ software (ver. 1.48, U.S. National Institutes of Health).
# HGF/c-MET signaling = experiment: Western blot, HGF-stimulated signaling in KMS11, KMS21 and KMS34 cells; type: cell-based, human; settings: 20 μM GTN057
# Description: as §1, §2, §3
compound,measurement,setting,value
COc1c(OC(C)=O)c2c(c(O)c1C(C)C)C(=O)CC1C(C)(C)CCC[C@]1(O)C2 (stereo partly shown) [GTN057],Effect of combination treatment,MUM24 cells,additive anti‐myeloma effect
same,Number of Factor VIII-positive vessel cells,KMS11 xenografted tumor,decreased
same,Numbers of cleaved-caspase-3-positive and PARP-positive cells,KMS11 xenografted tumor,significantly increased
same,Staining for cell proliferation marker MIB-1/Ki67,KMS11 xenografted tumor,weakened
same,Neutropenia and systemic toxicity,"[1]; 100 mg/kg, 2 days of each 3-day period over 2 weeks, mice",no significant neutropenia or systemic toxicity
same,Body weight and leukocyte count,"[1]; 40 or 100 mg/kg i.p., 2 consecutive days of each 3-day period for 2 weeks, ICR mice",neither a loss of body weight nor leukocytopenia
same,Maximal tolerated dose,"[1]; i.p., 2 days of every 3-day period, mice",≥ 100 mg/kg
same,"ERK1/2, STAT3, AKT1 phosphorylation levels",[2],did not clearly change
same,"Phosphorylation of ERK1/2, STAT3 and Akt1","HGF/c-MET signaling; KMS11, KMS21, KMS34 cells, 50 ng/mL HGF",diminished
same,Phosphorylation at y1234 y1235 of c-MET,HGF/c-MET signaling; co-culture with HGF,abolished
